Consider two molecules from patent US20090226500A1, “SUTURES AND ANTI-SCARRING AGENTS” (Angiotech Pharmaceuticals, Inc, priority 2006, published 2009).

The subject of test [1] is human fibroblasts. Briefly: Cell proliferation of fibroblasts. The class given is cell-based. The settings on record: Fibroblast, 72 hours, CYQUANT, read-out: IC50 cell proliferation of fibroblasts. In short, it runs like this:
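Human fibroblasts plated at 600 cells/well, attached overnight, then exposed to drug in triplicate for 72 h at 37°C. Cell content read with CYQUANT GR dye in lysis buffer after 3-5 min at room temperature.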

Test [2] concerns IL-1β production by THP-1 cells. Briefly: IL-1β production by macrophages. It counts as cell-based, human. The conditions noted are these: Homo sapiens, read-out: IC50 IL-1β production.
The test system of test [3] is MCP-1 production by THP-1 cells. Nature of the test: MCP-1 production by macrophages. It counts as cell-based, human. The settings on record: Homo sapiens; THP-1 cells stimulated with opsonized zymosan, 24 hours; read-out: IC50 MCP-1 production. In short, it runs like this:
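THP-1 cells (1×10^6/well, 10% FCS) stimulated with 1 mg/ml serum-opsonized zymosan plus compound added from DMSO stocks at 1/1000, 24 h at 37° C. MCP-1 in supernatants quantified by sandwich ELISA (TMB read-out) against a recombinant human MCP-1 standard curve, triplicates, background-subtracted.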

Test [4] deals with Smooth muscle cells. Briefly: Proliferation of smooth muscle cells. It counts as cell-based. The conditions noted are these: 72 hours, CYQUANT; read-out: IC50 proliferation of smooth muscle cells. The gist of the method:
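Smooth muscle cells at 600 cells/well, exposed to paclitaxel (DMSO stocks 10^−8 to 10^−2 M) in triplicate for 72 h at 37 °C. Proliferation read with CyQUANT GR dye in lysis buffer.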

Like-named read-outs stand apart in the source and are kept apart here.

`CC1=C(O)C(=O)C=C2C1=CC=C1[C@@]2(C)CC[C@@]2(C)[C@@H]3C[C@](C)(C(=O)O)CC[C@]3(C)CC[C@]12C` [celastrol]: the IC50 was 100 to 600 nM in test [1]; 23 nM in test [2] (THP-1, 24 h); 421 nM in test [3]; 493 nM in test [4].

Turning to `COc1c(C)c2c(c(O)c1C/C=C(\C)CCC(=O)O)C(=O)OC2` [mycophenolic acid], the IC50 in test [1] is 100 to 600 nM; in test [2] (THP-1 cells stimulated with opsonized zymosan, 24 hours), 2890 nM; in test [3] it was 764 nM; in test [4], 579 nM.
